Patent US5641500A, “Use of purinergic receptor agonists as antineoplastic agents” (The United States of America as represented by the …, priority 1995, dated 1997)

Assays:
[1] = system: PC-3 prostate carcinoma purinergic receptor; experiment: ATP/purine-stimulated Ca2+ response (quin2 fluorescence) in PC-3; type: cell-based, human; details: for relative agonist potency/activity in inducing a Ca2+ transient: PC-3, FIG. 7
Description: (§5) The human prostate carcinoma cell lines PC3, DU145 (American Type Culture Collection) and PC-3M (a gift of Dr. G. Weiss, Surgery Branch, NCI) were maintained in Ham's F12K (PC3), Eagle's Modified Essential Medium (DU145), or RPMI 1640 (PC3M), supplemented with 7% (PC3) or 10% (DU145 and PC3M) fetal bovine serum, 100 units/ml penicillin, 100 mg/ml streptomycin, and 300 mg/ml glutamine. The cells were grown in a mixture of 5% CO2, 95% air at 37° C., and propagated by typsinization and dilution into fresh medium. Cells were typically used for calcium determination two days after dilution into fresh medium.
(§6) [Ca^2+ ]i was determined by the quin2 technique of Tsien et al. (J. Cell Biol. 94:325-334, 1982) with some modifications. Briefly, cells from confluent cultures were harvested by treatment with trypsin-EDTA. Cells were washed with calcium medium (1 mM CaCl2, 1 mM KCl, 1 mM MgCl2, 140 mM NaCl, 20 mM HEPES, 5 mM dextrose, pH 7.4), and loaded with 20 mM quin2/AM (Molecular Probes, Eugene, Oreg.) in calcium medium at 37° C. for 30 minutes, then diluted 5-fold with the same medium and incubated at 37° C. for 60 minutes. After loading, cells were washed and resuspended in the calcium media at 1.5-2.0×10^6 cells/ml and kept on ice until use. Cell viability was determined by trypan blue exclusion and was usually >95%. For measurement of fluorescence, 2 ml of cell suspension was transferred to a cuvette maintained at 37° C. Fluorescence was measured in a Perkin-Elmer 650-10S fluorescence spectrophotometer, with an excitation wavelength of 336 nm, slit 5 nm, and an emission wavelength of 493 nm, slit 5 nm. [Ca^2+ ]i was estimated after calibration with Triton X-100 and EGTA, assuming a dissociation constant of the Ca^2+ -quin2 complex of 115 nM.

[2] = system: DU145 prostate carcinoma purinergic receptor; experiment: ATP/purine-stimulated Ca2+ response (quin2 fluorescence) in DU145; type: cell-based, human; details: for relative agonist potency/activity in inducing a Ca2+ transient: DU145, FIG. 6
Description: as §5, §6

[3] = system: purinergic receptor on PC-3M prostate carcinoma cells; experiment: Purine-stimulated Ca2+ response (quin2 fluorescence) in PC-3M; type: cell-based, human; details: FIG. 8
Description: as §5, §6

DU145 cells = experiment: Cell growth (hemacytometer viable cell counts) in DU145; type: cell-based, human; details: DU145, 5 days, 100 μM, versus untreated controls, FIG. 11
Description: (§1) The human prostate carcinoma cell lines PC3, DU145 (American Type Culture Collection) and PC-3M (a gift of Dr. G. Weiss, Surgery Branch, NCI) were maintained in Ham's F12K (PC3), Eagle's Modified Essential Medium (DU145), or RPMI 1640 (PC3M), supplemented with 7% (PC3) or 10% (DU145 and PC3M) fetal bovine serum, 100 units/ml penicillin, […], and […]. The cells were grown in a mixture of 5% CO2, 95% air at 37° C., and propagated by typsinization and dilution into fresh medium. Cells were typically used for calcium determination two days after dilution into fresh medium.
Cell growth was studied by hemacytometer counts of viable cells after incubation of cells with purinergic agonists in vitro. Viability was determined by trypan blue exclusion. In addition, growth studies were performed by ^3 H-thymidine incorporation. […]
(§2) Since purinergic receptor agonists induce massive mobilization of internal Ca^2+ stores and prolong this response through the opening of plasma membrane Ca^2+ channels, the effect of purinergic receptor stimulation on the growth of androgen-independent cells was examined. The cell lines DU145, PC-3, and PC-3M were incubated in the presence of ATP or the nonhydrolysable ATP analog adenylylimidodiphosphate (AMP-PNP), and cell growth was determined by hemacytometer counts of viable cells, with viability determined by trypan blue exclusion.

[4] = system: PC-3 prostate carcinoma cells; experiment: Cell growth (hemacytometer viable cell counts) and 3H-thymidine incorporation in PC-3; type: cell-based, human; details: for inhibition of cell growth: PC-3, 5 days, versus untreated control cells, FIG. 12; for 3H-thymidine incorporation cpm / 3H-thymidine incorporation cpm/cell / cell # (× 10-4): PC-3, 7 days
Description: as §1
(§3) Cell growth was studied by hemacytometer counts of viable cells after incubation of cells with purinergic agonists in vitro. Viability was determined by trypan blue exclusion. In addition, growth studies were performed by ^3 H-thymidine incorporation. […] The induction of DNA strand breaks in the setting of cell growth inhibition is characteristic of programmed cell death or apoptosis.
as §2
(§4) To further document the purinergic agonist-induced growth inhibition, thymidine incorporation studies were performed in conjunction with hemacytometer cell counts, and the thymidine incorporation per cell of ATP and AMP-PNP treated PC-3 and PC-3M cells was determined. These studies, shown in Table 2, confirmed that purinergic agonists inhibit the growth of androgen-independent prostate carcinoma cells. […] It is of interest that normal prostate cells die in response to androgen withdrawal in a process called apoptosis, and this cell death resembles the cell death shown after treatment with purinergic agonists in two respects. Firstly, the death of normal prostate cells after androgen withdrawal is dependent on a rise in intracellular Ca^2+. Secondly, the death of normal prostate cells after androgen withdrawal is mediated by an increase in the number of DNA strand breaks. Thus, this technique should be therapeutically useful for circumventing the absence of androgen receptors on advanced prostate carcinoma cells. The results presented here represent the discovery of a surface receptor specifically expressed on advanced prostatic adenocarcinoma which, when activated, induces a mode of cell death that apparently utilizes that same intracellular pathway as the death that normal prostate cells undergo in response to the withdrawal of androgen.

[5] = system: PC-3M prostate carcinoma cells; experiment: Cell growth (hemacytometer viable cell counts) and 3H-thymidine incorporation in PC-3M; type: cell-based, human; details: 5 days
Description: as §1, §3, §2, §4

[6] = system: PC-3 prostate carcinoma cells; experiment: Nude mouse tumorigenesis of PC-3 cells pretreated in vitro; type: in vivo, athymic mice; details: cells pretreated in vitro 100 uM 3 times over 7 days, 1.5×10^6 cells/mouse s.c., FIG. 13
Description: PC-3 prostate carcinoma cells were treated in vitro with the purinergic agonists ATP or AMP-PNP, 100 uM 3 times over 7 days, and their growth in athymic mice was compared to that in untreated control cells. Cells were injected subcutaneously at an inoculum of 1.5×10^6 cells/mouse in 0.2 ml phosphate buffered saline, and the presence of palpable tumors was determined on day 22.
The cells were treated in vitro for 7 days, and then an equal number of untreated control cells, ATP treated, or AMP-PNP treated cells were inoculated subcutaneously into nude (athymic) mice.

phospholipase C = experiment: ATP-stimulated inositol phosphate production (HPLC of 3H-inositol phosphates) in PC-3; type: cell-based, human
Description: Cells were incubated with ^3 H-inositol (6 μCi/ml) in inositol-free RPMI 1640 medium (NIH Media Unit) without serum for 2 to 3 days at 37° C. under an atmosphere of 5% CO2, 95% air. Cells were detached by trypsinization, washed twice in phosphate buffered saline pH 7.4, resuspended in PBS with 10 mM LiCl, and maintained for 15 minutes at 37° C. After that, cells were washed twice with PBS plus 10 mM LiCl and resuspended in calcium medium plus 10 mM LiCl. The cell suspension was aliquoted into Eppendorf tubes, pre-warmed at 37° C., and treated with reagents for different times as indicated. Reactions were terminated by adding 100% trichloroacetic acid (TCA) to a final concentration of 10%. After centrifugation, the supernatants were removed, extracted twice with water-saturated ether to remove TCA, and stored at 4° C. until quantitative analysis of inositol phosphates by high pressure liquid chromatography.
Samples prepared as described above were applied to a Whatman Partisil 5 SAX column. Inositol phosphates were separated using an ammonium phosphate gradient (0.01M to 1.4M. pH 3.8, 1 ml/min flow rate) as described previously (Biochem. J. 255: 403-410, 1988). Radioactivity was measured by use of a Raytest radiodetector with a 2 ml flow cell and a ratio of 4:1 (v:v) of Monoflow 4 high salt scintillant (National Diagnostics); eluate at an efficiency of 17%. Values (counts/min) for each inositol phosphate were expressed as a percentage of ^3 H-phosphoinositides in the sample, permitting comparison among experiments.

[7] = system: plasma membrane Ca^2+ channels; experiment: Effect of organic Ca2+ channel blockers on the ATP-stimulated Ca2+ transient in PC-3; type: cell-based, human; details: PC-3, FIG. 9

`Nc1ncnc2c1ncn2[C@@H]1O[C@H](COP(=O)(O)OP(=O)(O)O)[C@@H](O)[C@H]1O` [ADP, adenosine diphosphate] was tested, and the “relative agonist potency/activity in inducing a Ca2+ transient” value (“relative agonist potency/activity” below) [1] was “ATP>ADP>AMP>adenosine”, the “relative agonist potency/activity” value [2] was “ATP>ADP>AMP>adenosine” and the “relative agonist potency/activity” value [3] was “ATP>ADP>AMP>adenosine”.
With `Nc1ncnc2c1ncn2[C@@H]1O[C@H](COP(=O)(O)O)[C@@H](O)[C@H]1O` [AMP, adenosine monophosphate] the “relative agonist potency/activity” value [1] was “ATP>ADP>AMP>adenosine”, the “relative agonist potency/activity” value [2] was “ATP>ADP>AMP>adenosine” and the “relative agonist potency/activity” value [3] was “ATP>ADP>AMP>adenosine”.
For `Nc1ncnc2c1ncn2[C@@H]1O[C@H](COP(=O)(O)OP(=O)(O)NP(=O)(O)O)[C@@H](O)[C@H]1O` [AMP-PNP, 5'adenylylimidodiphosphate], the “inhibition of cell growth” value (DU145 cells) was “inhibition of growth”, the “inhibition of cell growth” value ([4]; 100 μM) was “inhibition of growth” and the 3H-thymidine incorporation cpm ([4]; 100 μM) was 307 cpm. For the same compound, the 3H-thymidine incorporation cpm/cell ([4]; 100 μM) was 0.06 cpm/cell, the “cell # (× 10-4)” value ([4]; 100 μM) was 0.5 × 10-4 and the 3H-thymidine incorporation cpm ([5]; 100 μM) was 2790 cpm. The 3H-thymidine incorporation cpm/cell ([5]; 100 μM) was 0.14 cpm/cell, the “cell # (× 10-4)” value ([5]; 100 μM) was 2.0 × 10-4 and the “inhibition of tumorigenesis (palpable tumor)” value [6] was “inhibition of PC-3 prostate carcinoma tumorigenesis”.
In the case of `Nc1ncnc2c1ncn2[C@@H]1O[C@H](COP(=O)(O)OP(=O)(O)OP(=O)(O)O)[C@@H](O)[C@H]1O` [ATP, adenosine triphosphate], the “inhibition of cell growth” value (DU145 cells) was “inhibition of growth”, the “mean percent stimulation of Ca2+ response” value ([1]; PC-3, 100 μM ATP, 16 experiments) was 443.3% and the “Ca2+ mobilizing activity compared with other peptides and neurotransmitters” value ([1]; PC-3, FIG. 1) was “largest Ca^2+ response of the agonists tested”. The “relative agonist potency/activity” value [1] was “ATP>ADP>AMP>adenosine”, the “mean percent stimulation of Ca2+ response” value ([2]; DU145, 100 μM ATP, 13 experiments) was 510.7% and the “relative agonist potency/activity” value [2] was “ATP>ADP>AMP>adenosine”. For the same compound, the “relative agonist potency/activity” value [3] was “ATP>ADP>AMP>adenosine”, the “inhibition of cell growth” value ([4]; 100 μM) was “inhibition of growth” and the 3H-thymidine incorporation cpm ([4]; 100 μM) was 2729 cpm. The 3H-thymidine incorporation cpm/cell ([4]; 100 μM) was 0.04 cpm/cell, the “cell # (× 10-4)” value ([4]; 100 μM) was 7.5 × 10-4 and the 3H-thymidine incorporation cpm ([5]; 100 μM) was 3307 cpm. The 3H-thymidine incorporation cpm/cell ([5]; 100 μM) was 0.11 cpm/cell, the “cell # (× 10-4)” value ([5]; 100 μM) was 3.0 × 10-4 and the “I(1,4,5)P3 % of total IP” value (phospholipase C; PC-3, 8 sec) was 0.64 % of total IP. For the same compound, the “I(1,4,5)P3 cpm” value (phospholipase C; PC-3, 8 sec) was 1103 cpm, the “I(1,4,5)P3 % of total IP” value (phospholipase C; PC-3, 15 sec) was 0.57 % of total IP and the “I(1,4,5)P3 cpm” value (phospholipase C; PC-3, 15 sec) was 971 cpm. For the same compound, the “I(1,4,5)P3 % of total IP” value (phospholipase C; PC-3, 30 sec) was 0.78 % of total IP, the “I(1,4,5)P3 cpm” value (phospholipase C; PC-3, 30 sec) was 1361 cpm and the “inhibition of tumorigenesis (palpable tumor)” value [6] was “inhibition of PC-3 prostate carcinoma tumorigenesis”.
With `CCCC(=O)Nc1ncnc2c1ncn2[C@@H]1O[C@@H]2COP(=O)(O)O[C@H]2[C@H]1OC(=O)CCC` [DbcAMP, reference compound] the 3H-thymidine incorporation cpm ([4]; DbcAMP concentration not given) was 182 cpm, the 3H-thymidine incorporation cpm/cell ([4]; DbcAMP concentration not given) was 0.01 cpm/cell and the “cell # (× 10-4)” value ([4]; DbcAMP concentration not given) was 1.5 × 10-4.
With `C[C@H](CCC(=O)O)C[C@H](C)C[C@H](C)C(=O)/C=C(\O)[C@H](C)C[C@H](C)C/C=C/[C@@H](C)[C@@H](O)[C@@H](C)[C@@H](O)C[C@@H]1CC[C@@](C)([C@H]2CC[C@@](C)([C@@H](C)O)O2)O1` [Ionomycin, ionomycin, reference compound] the 3H-thymidine incorporation cpm ([5]; 1 μM) was 3920 cpm, the 3H-thymidine incorporation cpm/cell ([5]; 1 μM) was 0.39 cpm/cell and the “cell # (× 10-4)” value ([5]; 1 μM) was 1.0 × 10-4.
For `Nc1ncnc2c1ncn2[C@@H]1O[C@H](CO)[C@@H](O)[C@H]1O` [adenosine], the “relative agonist potency/activity” value [1] was “ATP>ADP>AMP>adenosine”, the “relative agonist potency/activity” value [2] was “ATP>ADP>AMP>adenosine” and the “relative agonist potency/activity” value [3] was “ATP>ADP>AMP>adenosine”.
In the case of `COc1ccc([C@@H]2Sc3ccccc3N(CCN(C)C)C(=O)[C@@H]2OC(C)=O)cc1` [diltiazem], the “inhibition of influx of extracellular Ca2+ caused by ATP stimulation” value (“inhibition of influx … by ATP stimulation” for short) [7] was “inhibitable”.
For `COC(=O)C1=C(C)NC(C)=C(C(=O)OCCN(C)Cc2ccccc2)C1c1cccc([N+](=O)[O-])c1` (stereo not shown) [nicardipine], the “inhibition of influx … by ATP stimulation” value [7] was “inhibitable”.
With `COC(=O)C1=C(C)NC(C)=C(C(=O)OC)C1c1ccccc1[N+](=O)[O-]` [nifedipine] the “inhibition of influx … by ATP stimulation” value [7] was “inhibitable”.
For `COc1ccc(CCN(C)CCCC(C#N)(c2ccc(OC)c(OC)c2)C(C)C)cc1OC` (stereo not shown) [verapamil], the “inhibition of influx … by ATP stimulation” value [7] was “inhibitable”.
